The source of these data is patent US20150164910A1, “ANTIVIRAL COMPOUNDS AND METHODS OF USE” (The Regents of the University of Califonia, priority 2012, published 2015).

The test system of test [1] is CVB3-H3. Put plainly: Plaque reduction assay, CVB3-H3 in HeLa-RW cells. The class given is cell-based, coxsackievirus B3. The note with it: compound added 30 min before infection, CVB3-H3 MOI 1, HeLa-RW, 6 hours; log10(titer with DMSO only/titer with inhibitor).
Test [2] relates to eGFP-expressing recombinant CVB3. The class given is cell-based, coxsackievirus B3. The note with it: eGFP-CVB3 m.o.i=1, compound added at time of infection, 6 hr post infection; 1-(% eGFP+ cells with compound/% with DMSO only).

SMILES strings stand for the structures.
For Inhibition of infected cells in this document: test concentration or dose not given here.

On to `Cc1ccc([S+]([O-])Nc2cccc(C(=O)O)c2)cc1` (stereo not shown) [Compound 55, 3-{[(4-Methylphenyl)sulfinyl]amino} benzoic acid], for which the “Log10 reduction of virus titer” value in test [1] is 2.5. In addition, the “Inhibition of infected cells” value in test [2] worked out at 98.4%.
Take `COc1ccc(-c2nc(C)c(C(=O)Nc3cccc(-c4nnc5n4CCCCC5)c3)s2)cc1` [Compound 61, 2-(4-Methoxyphenyl)-4-methyl-N-[3-(6,7,8,9-tetrahydro-5H-[1,2,4]triazolo [4,3-a]azepin-3-yl)phenyl]-1,3-thiazole-5-carboxamide]: the “Log10 reduction of virus titer” value in test [1] turned out to be 1.8. The “Inhibition of infected cells” value in test [2] stood at 96.0%.
For `O=C(c1ccco1)N(Cc1ccccc1)Cc1ccccn1` [Compound 58, N-Benzyl-N-(2-pyridinylmethyl)-2-furamide], in that order: 2.4 and 91.7%.
With `CC(C)n1ncc2c(C(=O)Nc3cccc(-c4nnco4)c3)cc(-c3ccccc3)nc21` [Compound 17, 1-Isopropyl-N-[3-(1,3,4-oxadiazol-2-yl)phenyl]-6-phenyl-1H-pyrazolo[3,4-b]pyridine-4-carboxamide], in test [1], the “Log10 reduction of virus titer” value came to 4.3. In test [2], the “Inhibition of infected cells” value came out at 99.6%.
Regarding `CC1Oc2ccc(NC(=O)c3cc(-c4cccs4)nc4ccccc34)cc2NC1=O` (stereo not shown) [Compound 30, N-(2-Methyl-3-oxo-3,4-dihydro-2H-1,4-benzoxazin-6-yl)-2-(2-thienyl)-4-quinolinecarboxamide], the “Log10 reduction of virus titer” value in test [1] stood at 4.1. Besides, the “Inhibition of infected cells” value in test [2] was 100%.
As to `Cc1ccc(NC(=O)c2cc(C3CC3)nc3c2cnn3C(C)C)cc1S(N)(=O)=O` [Compound 11, 6-Cyclopropyl-1-isopropyl-N-(4-methyl-3-sulfamoylphenyl)-1H-pyrazolo[3,4-b]pyridine-4-carboxamide], the “Log10 reduction of virus titer” value in test [1] worked out at 4.1. In addition, the “Inhibition of infected cells” value in test [2] was determined as 99.6%.
For `CC1Oc2ccc(NC(=O)c3cc(C4CC4)nc4c3cnn4C(C)C)cc2NC1=O` (stereo not shown) [Compound 13, 6-Cyclopropyl-1-isopropyl-N-(2-methyl-3-oxo-3,4-dihydro-2H-1,4-benzoxazin-6-yl)-1H-pyrazolo [3,4-b]pyridine-4-carboxamide], in that order: 4.2 and 100%.
`OC(c1ccccc1)c1nc2ccccc2n1-c1ccccc1` (stereo not shown) [Compound 41, Phenyl(1-phenyl-1H-benzimidazol-2-yl)methanol]: the “Log10 reduction of virus titer” value in test [1] was 4.1. Besides, in test [2], the “Inhibition of infected cells” value turned out to be 100%.
The corresponding values for `Br.COc1ccc(C(=O)Cn2c(=N)n(Cc3ccc(C)cc3)c3ccccc32)cc1` [Compound 39, 1-[2-(4-Methoxyphenyl)-2-oxoethyl]-3-(4-methylbenzyl)-1,3-dihydro-2H-benzimidazol-2-iminium bromide] are 0.3 and 100%.
Regarding `CCOc1ccc(C(=O)N2CCC(C(=O)c3ccc4c(c3)OCCO4)CC2)cc1` [Compound 44, 2,3-Dihydro-1,4-benzodioxin-6-yl[1-(4-ethoxybenzoyl)-4-piperidinyl] methanone], the “Log10 reduction of virus titer” value in test [1] amounted to 0.2. In addition, the “Inhibition of infected cells” value in test [2] is 84.9%.
The corresponding values for `C#CCSc1nc2ccccc2c(=O)n1Cc1ccccc1` [Compound 48, 3-Benzyl-2-(2-propyn-1-ylsulfanyl)-4(3H)-quinazolinone] are 4.5 and 100%.
For `O=C(N/N=C/c1ccc(O)cc1)c1cc(-c2ccccc2)nc2ccccc12` [Compound 29, N′-[(E)-(4-Hydroxyphenyl)methylene]-2-phenyl-4-quinoline-carbohydrazide], in that order: 3.8 and 100%.
For `c1ccc2[nH]c(CN3CCCC3)nc2c1` [Compound 40, 2-(1-Pyrrolidinylmethyl)-1H-benzimidazole], in that order: 4.0 and 100%.
Regarding `Cl.OCCN1CCN(CC/C=C2/c3ccccc3Sc3ccc(Cl)cc32)CC1` [Compound 71, 2-[4-[3-(2-chlorothioxanthen-9-ylidene)propyl]piperazin-1-yl]ethanol hydrochloride, reference compound], the “Log10 reduction of virus titer” value in test [1] stood at 4.2. Besides, the “Inhibition of infected cells” value in test [2] was 99.1%.
Consider `Brc1ccc(-c2csc3ncnc(Sc4nnc(C5CC5)o4)c23)cc1` [Compound 53, 5-(4-Bromophenyl)-4-[(5-cyclopropyl-1,3,4-oxadiazol-2-yl)sulfanyl]thieno [2,3-d]pyrimidine], for which the “Log10 reduction of virus titer” value in test [1] is 1.8. In addition, in test [2], the “Inhibition of infected cells” value was 100%.
As to `COc1ccc(NC(=O)c2nn(Cc3ccccc3)c(=O)c3ccccc23)cn1` [Compound 64, 3-Benzyl-N-(6-methoxy-3-pyridinyl)-4-oxo-3,4-dihydro-1-phthalazine-carboxamide], the “Log10 reduction of virus titer” value in test [1] is given as 4.2. In test [2], the “Inhibition of infected cells” value was found to be 100%.
As to `Cl.O[C@@H]1[C@@H](O)C=C2CCN3Cc4cc5c(cc4[C@H]1C23)OCO5` (stereo partly drawn) [Compound 73, (1S,2S,12bS)-2,4,5,7,12b,12c-Hexahydro-1H-[1,3]dioxolo[4,5-j]pyrrolo[3,2,1-de] phenanthridine-1,2-diol hydrochloride (1:1), reference compound], the “Log10 reduction of virus titer” value in test [1] turned out to be 2.8. For the same compound, the “Inhibition of infected cells” value in test [2] is 100%.
In the case of `CC(C)n1ncc2c(C(=O)Nc3ccc(F)cc3Cl)cc(-c3cccs3)nc21` [Compound 6, N-(2-Chloro-4-fluorophenyl)-1-isopropyl-6-(2-thienyl)-1H-pyrazolo[3,4-b] pyridine-4-carboxamide], the “Log10 reduction of virus titer” value in test [1] is given as 4.3. Moreover, the “Inhibition of infected cells” value in test [2] was 99.5%.
With `NNC(=O)c1cc(-c2ccccc2)nc2ccccc12` [Compound 26, 2-Phenyl-4-quinoline-carbohydrazide], in test [1], the “Log10 reduction of virus titer” value was found to be 2.5. The “Inhibition of infected cells” value in test [2] is listed as 98.7%.
With `O=C(O)c1cccc(NS(=O)(=O)c2ccc(-c3ccccc3)cc2)c1` [Compound 56, 3-[(4-Biphenylylsulfonyl)amino] benzoic acid], the “Log10 reduction of virus titer” value in test [1] amounted to 0.3. The “Inhibition of infected cells” value in test [2] came to 85.4%.
Turning to `COc1ccc(NC(=O)c2cc(-c3cccs3)nc3c2cnn3C(C)C)cc1` [Compound 7, 1-Isopropyl-N-(4-methoxyphenyl)-6-(2-thienyl)-1H-pyrazolo [3,4-b]pyridine-4-carboxamide], the “Log10 reduction of virus titer” value in test [1] turned out to be 4.3. The “Inhibition of infected cells” value in test [2] amounted to 99.5%.
For `CCCCNCC(=O)Nc1ccccc1N1CCCCC1` [Compound 65, N^2-Butyl-N-[2-(1-piperidinyl)phenyl] glycinamide], the “Log10 reduction of virus titer” value in test [1] is listed as −0.4. The “Inhibition of infected cells” value in test [2] was 36.2%.
Regarding `COc1ccc(-c2nc3cnccn3c2NCc2ccc(C)cc2)cc1CO` [Compound 59, (2-Methoxy-5-{3-[(4-methylbenzyl)amino]imidazo[1,2-a]pyrazin-2-yl}phenyl)methanol], in test [1], the “Log10 reduction of virus titer” value is on record as 1.3. In test [2], the “Inhibition of infected cells” value amounted to 75.2%.
